In patent US8206898B2, “RNA exit channel: target and method for inhibition of bacterial RNA polymerase” (priority 2003, dated 2012):

Assays:
[1] = test system: Escherichia coli hyper-permeable strain D21f2/TolC; experiment: MIC of Lpm for Escherichia coli Lpm^R isolates from saturation mutagenesis and selection; assay type: cell-based
Experimental: To define systematically determinants for function of Lpm, saturation mutagenesis of Escherichia coli rpoB and rpoC was performed, and Lpm^R mutants were isolated and characterized (targeting codons or residues located within 20 Å of Bacillus subtilis Lpm^R sites in the three-dimensional structure of RNAP; methods as in Mukhopadhyay, et al., (2004) Mol. Cell, in press, except that selection was performed in hyper-permeable strain D21f2/TolC (rfa tolC; Fralick et al., (1994) J. Bacteriol. 176, 6404-6406)). 24 independent single-substitution Lpm^r mutants were identified (Table 2). The substitution sites define an approximately 20 Å×20 Å continuous surface, located within the RNA-exit-channel, spanning the target, and containing each residue of the target (i.e., residues 1251, 1256, and 1321 of β and residues 248-249 of β′; Table 2). Substitution sites corresponding to substitution sites in the Bacillus subtilis Lpm^R mutants described above were among those identified (i.e., residue 1256 of β and residues 249 and 337 of β′; Tables 1, 2).

[2] = biological target: RNAP-promoter open complex (RNAP holoenzyme, lacUV5-12 DNA fragment) (Escherichia coli, UniProt P0A8T7+P0A8V2); experiment: Electrophoretic mobility-shift analysis of open-complex formation; assay type: biochemical; conditions: 0-100 μm Lpm, added to RNAP before addition of the promoter DNA; FIG. 3
Chain of RNAP-promoter open complex (RNAP holoenzyme, lacUV5-12 DNA fragment) (P0A7Z4 whole entry, the tested form may be a part): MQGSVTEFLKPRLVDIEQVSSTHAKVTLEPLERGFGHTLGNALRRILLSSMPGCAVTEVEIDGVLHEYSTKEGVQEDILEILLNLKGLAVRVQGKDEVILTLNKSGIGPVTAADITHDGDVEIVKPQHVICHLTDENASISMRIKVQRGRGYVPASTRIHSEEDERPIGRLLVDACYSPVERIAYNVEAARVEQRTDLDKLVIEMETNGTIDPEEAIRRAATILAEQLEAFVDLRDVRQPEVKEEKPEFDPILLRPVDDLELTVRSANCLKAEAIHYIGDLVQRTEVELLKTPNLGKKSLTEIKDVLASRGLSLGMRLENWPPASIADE
Chain of RNAP-promoter open complex (RNAP holoenzyme, lacUV5-12 DNA fragment) (P0A8V2 whole entry, the tested form may be a part): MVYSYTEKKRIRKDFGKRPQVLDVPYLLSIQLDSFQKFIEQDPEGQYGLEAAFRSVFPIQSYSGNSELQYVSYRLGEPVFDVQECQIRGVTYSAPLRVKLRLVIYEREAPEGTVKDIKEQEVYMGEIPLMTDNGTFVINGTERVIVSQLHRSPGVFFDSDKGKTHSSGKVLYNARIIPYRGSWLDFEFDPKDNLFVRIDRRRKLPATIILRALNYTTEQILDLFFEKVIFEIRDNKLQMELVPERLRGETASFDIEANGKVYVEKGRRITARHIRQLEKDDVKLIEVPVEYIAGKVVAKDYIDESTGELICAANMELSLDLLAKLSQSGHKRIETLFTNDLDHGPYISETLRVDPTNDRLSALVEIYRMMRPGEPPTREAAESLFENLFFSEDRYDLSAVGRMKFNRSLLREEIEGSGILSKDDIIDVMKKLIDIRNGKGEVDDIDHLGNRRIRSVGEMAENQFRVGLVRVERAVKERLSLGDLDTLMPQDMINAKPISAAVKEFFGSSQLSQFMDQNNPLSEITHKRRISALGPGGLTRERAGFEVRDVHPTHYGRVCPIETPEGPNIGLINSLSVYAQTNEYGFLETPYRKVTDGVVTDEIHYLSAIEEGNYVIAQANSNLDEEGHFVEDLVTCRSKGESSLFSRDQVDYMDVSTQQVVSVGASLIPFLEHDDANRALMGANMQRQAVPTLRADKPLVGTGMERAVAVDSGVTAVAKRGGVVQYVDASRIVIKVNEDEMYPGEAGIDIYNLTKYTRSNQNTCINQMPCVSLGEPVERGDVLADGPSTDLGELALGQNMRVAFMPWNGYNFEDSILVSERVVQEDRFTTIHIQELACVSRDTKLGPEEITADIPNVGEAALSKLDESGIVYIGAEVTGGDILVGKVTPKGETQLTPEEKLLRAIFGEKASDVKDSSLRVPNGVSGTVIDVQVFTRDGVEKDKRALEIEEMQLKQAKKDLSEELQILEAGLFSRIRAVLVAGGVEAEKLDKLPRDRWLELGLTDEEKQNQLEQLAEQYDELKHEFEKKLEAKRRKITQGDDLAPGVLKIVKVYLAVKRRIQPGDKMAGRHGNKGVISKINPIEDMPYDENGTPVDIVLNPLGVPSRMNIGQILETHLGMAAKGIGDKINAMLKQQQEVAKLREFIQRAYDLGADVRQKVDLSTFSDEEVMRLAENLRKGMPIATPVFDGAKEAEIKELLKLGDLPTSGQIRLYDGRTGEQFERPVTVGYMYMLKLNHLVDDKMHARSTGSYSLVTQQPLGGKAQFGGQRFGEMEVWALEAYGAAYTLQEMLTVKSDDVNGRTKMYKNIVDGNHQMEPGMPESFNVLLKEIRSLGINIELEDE
Chain of RNAP-promoter open complex (RNAP holoenzyme, lacUV5-12 DNA fragment) (P0A800 whole entry, further chain, the tested form may be a part): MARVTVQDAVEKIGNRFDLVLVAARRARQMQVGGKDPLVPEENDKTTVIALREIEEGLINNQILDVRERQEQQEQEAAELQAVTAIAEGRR
Chain of RNAP-promoter open complex (RNAP holoenzyme, lacUV5-12 DNA fragment) (P00579 whole entry, further chain, the tested form may be a part): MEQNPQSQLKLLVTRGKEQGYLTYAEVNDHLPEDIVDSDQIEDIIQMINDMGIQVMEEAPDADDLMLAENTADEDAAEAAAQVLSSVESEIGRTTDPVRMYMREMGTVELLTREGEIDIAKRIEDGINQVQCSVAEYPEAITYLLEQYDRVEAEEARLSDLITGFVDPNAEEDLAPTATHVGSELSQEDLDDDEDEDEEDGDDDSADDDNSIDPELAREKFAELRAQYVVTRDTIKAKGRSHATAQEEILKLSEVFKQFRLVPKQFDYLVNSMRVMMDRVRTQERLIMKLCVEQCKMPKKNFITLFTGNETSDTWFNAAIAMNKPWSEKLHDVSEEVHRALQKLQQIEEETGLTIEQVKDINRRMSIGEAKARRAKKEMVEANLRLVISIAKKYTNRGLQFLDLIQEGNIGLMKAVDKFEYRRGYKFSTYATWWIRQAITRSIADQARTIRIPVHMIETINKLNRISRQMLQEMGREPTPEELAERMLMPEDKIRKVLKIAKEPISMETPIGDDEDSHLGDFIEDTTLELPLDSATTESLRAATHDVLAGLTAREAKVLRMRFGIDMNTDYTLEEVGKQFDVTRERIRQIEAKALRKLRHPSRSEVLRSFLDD
Chain of RNAP-promoter open complex (RNAP holoenzyme, lacUV5-12 DNA fragment) (P0A8T7 whole entry, the tested form may be a part): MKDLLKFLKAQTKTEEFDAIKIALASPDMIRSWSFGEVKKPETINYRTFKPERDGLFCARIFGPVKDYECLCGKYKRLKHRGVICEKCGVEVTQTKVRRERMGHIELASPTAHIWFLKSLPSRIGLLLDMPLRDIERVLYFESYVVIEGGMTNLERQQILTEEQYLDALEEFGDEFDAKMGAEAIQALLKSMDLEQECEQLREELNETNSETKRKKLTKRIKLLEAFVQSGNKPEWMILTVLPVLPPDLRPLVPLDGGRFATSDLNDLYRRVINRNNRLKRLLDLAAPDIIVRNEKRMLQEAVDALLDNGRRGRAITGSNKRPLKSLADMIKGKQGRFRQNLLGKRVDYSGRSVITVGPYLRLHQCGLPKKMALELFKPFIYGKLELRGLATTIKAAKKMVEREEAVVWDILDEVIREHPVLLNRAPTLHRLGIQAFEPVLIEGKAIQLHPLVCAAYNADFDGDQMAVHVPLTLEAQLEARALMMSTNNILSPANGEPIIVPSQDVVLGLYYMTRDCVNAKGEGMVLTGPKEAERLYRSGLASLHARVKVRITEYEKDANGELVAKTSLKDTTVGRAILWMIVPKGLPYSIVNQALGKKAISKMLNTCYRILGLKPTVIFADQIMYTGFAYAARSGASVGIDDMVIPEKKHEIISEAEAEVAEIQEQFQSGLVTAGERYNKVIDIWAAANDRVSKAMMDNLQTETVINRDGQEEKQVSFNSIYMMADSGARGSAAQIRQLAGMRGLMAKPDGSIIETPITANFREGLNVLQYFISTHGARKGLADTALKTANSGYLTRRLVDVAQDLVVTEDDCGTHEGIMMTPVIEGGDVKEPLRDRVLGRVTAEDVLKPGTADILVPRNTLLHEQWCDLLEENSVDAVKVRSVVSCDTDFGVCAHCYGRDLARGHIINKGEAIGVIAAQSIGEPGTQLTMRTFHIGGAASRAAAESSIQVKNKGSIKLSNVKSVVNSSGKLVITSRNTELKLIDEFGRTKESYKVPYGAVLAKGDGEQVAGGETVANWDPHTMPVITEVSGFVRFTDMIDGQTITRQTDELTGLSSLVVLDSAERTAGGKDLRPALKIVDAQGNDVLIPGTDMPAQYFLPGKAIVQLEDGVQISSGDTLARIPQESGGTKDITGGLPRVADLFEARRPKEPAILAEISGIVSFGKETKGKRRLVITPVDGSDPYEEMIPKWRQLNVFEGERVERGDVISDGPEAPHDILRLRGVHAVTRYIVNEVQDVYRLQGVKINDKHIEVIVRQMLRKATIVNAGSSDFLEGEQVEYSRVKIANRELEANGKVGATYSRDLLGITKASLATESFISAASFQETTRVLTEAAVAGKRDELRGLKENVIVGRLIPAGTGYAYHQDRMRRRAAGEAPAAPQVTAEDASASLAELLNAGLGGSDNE
Experimental: To determine whether Lpm inhibits steps in transcription up to and including formation of the RNAP-promoter open complex, electrophoretic mobility-shift experiments were performed. The analysis of open-complex formation was performed as follows: reaction mixtures (20 μl) contained 100 nM RNAP holoenzyme, 20 nM fluorochrome-labeled DNA fragment lacUV5-12 (Cy5, +26) (Mukhopadhyay et al., 2001), and 0-100 μm Lpm in TB (50 mM Tris-HCl (pH 8.0), 100 mM KCl, 10 mM MgCl2, 1 mM dithiothreitol, 10 μg/ml bovine serum albumin, and 5% glycerol), added before or after the DNA. Following 15 min at 37° C., 0.5 μl 1 mg/ml heparin was added (to disrupt non-specific complexes), and, following a further 2 minutes at 37° C., reaction mixtures were applied to 5% polyacrylamide slab gels (30:1 acrylamide/bisacrylamide; 6×9×0.1 cm) and electrophoresed in 90 mM Tris-borate (pH 8.0) and 0.2 mM EDTA (20 V/cm; 30 min at 37° C.) and analyzed using a fluorescence scanner (Storm 860; Molecular Dynamics).

bacterial RNAP = conditions: literature; cited from earlier work
[3] = test system: Gram-positive bacteria and Gram-negative bacteria; conditions: literature (Coronelli et al., 1975); cited from earlier work

## lipiarmycin [Lpm]
[1]; RpoB 1251 Tyr→Phe
  MIC (mg/ml) (wild-type = 1): 10 fold relative to wild-type
[1]; RpoB 1256 Gln→Glu
  MIC (mg/ml) (wild-type = 1): 10 fold relative to wild-type
[1]; RpoB 1256 Gln→Leu
  MIC (mg/ml) (wild-type = 1): 5 fold relative to wild-type
[1]; RpoB 1302 Thr→Pro
  MIC (mg/ml) (wild-type = 1): 5 fold relative to wild-type
[1]; RpoB 1318 Gly→Ser
  MIC (mg/ml) (wild-type = 1): 5 fold relative to wild-type
[1]; RpoB 1319 Met→Arg
  MIC (mg/ml) (wild-type = 1): 10 fold relative to wild-type
[1]; RpoB 1319 Met→Lys
  MIC (mg/ml) (wild-type = 1): 5 fold relative to wild-type
[1]; RpoB 1321 Glu→Val
  MIC (mg/ml) (wild-type = 1): 5 fold relative to wild-type
[1]; RpoB 1325 Val→Ala
  MIC (mg/ml) (wild-type = 1): 10 fold relative to wild-type
[1]; RpoB 1325 Val→Leu
  MIC (mg/ml) (wild-type = 1): 5 fold relative to wild-type
[1]; RpoC 248 Asp→Tyr
  MIC (mg/ml) (wild-type = 1): 5 fold relative to wild-type
[1]; RpoC 249 Leu→Arg
  MIC (mg/ml) (wild-type = 1): 5 fold relative to wild-type
[1]; RpoC 337 Arg→Hys
  MIC (mg/ml) (wild-type = 1): 5 fold relative to wild-type
[1]; RpoC 337 Arg→Ser
  MIC (mg/ml) (wild-type = 1): 5 fold relative to wild-type
[1]; wild-type E. coli
  MIC (mg/ml) (wild-type = 1): (wild-type = 1) mg/ml
[2]
  formation of the RNAP-promoter open complex: inhibits formation of the RNAP-promoter open complex
Bacterial RNAP
  inhibition of bacterial RNAP: inhibits bacterial RNAP
[3]
  antibacterial effectiveness: effective against both Gram-positive bacteria and Gram-negative bacteria
